Source: publication PMC6340402 (Chemical Science, 2018)

Test system: HeLa cells
Test: Cellular uptake in HeLa cells by confocal laser scanning microscopy
Assay type: cell-based
Details: 30 minutes, 37 °C, serum-containing medium, Fig. 3

Substance: FITC-Ahx-Arg-Arg-Arg-Arg-tetrazine-BCN-Arg-Arg-Arg-Arg-NH2 [R4-b-R4]
- cellular uptake (CLSM, FITC fluorescence) (all concentrations (5, 10, 15 and 20 μM)): taken up at all concentrations
- mechanism of uptake at the higher concentrations (CLSM) (higher concentrations): strong cytosolic uptake
